{
  "source": "patent US10457655B2",
  "about": "“Compounds and compositions for inhibition of FASN” (FORMA Therapeutics, Inc., priority 2013, dated 2019)",
  "data": [
    {"target": "FASN enzyme (Homo sapiens, UniProt P49327)", "sequence (P49327 whole entry)": "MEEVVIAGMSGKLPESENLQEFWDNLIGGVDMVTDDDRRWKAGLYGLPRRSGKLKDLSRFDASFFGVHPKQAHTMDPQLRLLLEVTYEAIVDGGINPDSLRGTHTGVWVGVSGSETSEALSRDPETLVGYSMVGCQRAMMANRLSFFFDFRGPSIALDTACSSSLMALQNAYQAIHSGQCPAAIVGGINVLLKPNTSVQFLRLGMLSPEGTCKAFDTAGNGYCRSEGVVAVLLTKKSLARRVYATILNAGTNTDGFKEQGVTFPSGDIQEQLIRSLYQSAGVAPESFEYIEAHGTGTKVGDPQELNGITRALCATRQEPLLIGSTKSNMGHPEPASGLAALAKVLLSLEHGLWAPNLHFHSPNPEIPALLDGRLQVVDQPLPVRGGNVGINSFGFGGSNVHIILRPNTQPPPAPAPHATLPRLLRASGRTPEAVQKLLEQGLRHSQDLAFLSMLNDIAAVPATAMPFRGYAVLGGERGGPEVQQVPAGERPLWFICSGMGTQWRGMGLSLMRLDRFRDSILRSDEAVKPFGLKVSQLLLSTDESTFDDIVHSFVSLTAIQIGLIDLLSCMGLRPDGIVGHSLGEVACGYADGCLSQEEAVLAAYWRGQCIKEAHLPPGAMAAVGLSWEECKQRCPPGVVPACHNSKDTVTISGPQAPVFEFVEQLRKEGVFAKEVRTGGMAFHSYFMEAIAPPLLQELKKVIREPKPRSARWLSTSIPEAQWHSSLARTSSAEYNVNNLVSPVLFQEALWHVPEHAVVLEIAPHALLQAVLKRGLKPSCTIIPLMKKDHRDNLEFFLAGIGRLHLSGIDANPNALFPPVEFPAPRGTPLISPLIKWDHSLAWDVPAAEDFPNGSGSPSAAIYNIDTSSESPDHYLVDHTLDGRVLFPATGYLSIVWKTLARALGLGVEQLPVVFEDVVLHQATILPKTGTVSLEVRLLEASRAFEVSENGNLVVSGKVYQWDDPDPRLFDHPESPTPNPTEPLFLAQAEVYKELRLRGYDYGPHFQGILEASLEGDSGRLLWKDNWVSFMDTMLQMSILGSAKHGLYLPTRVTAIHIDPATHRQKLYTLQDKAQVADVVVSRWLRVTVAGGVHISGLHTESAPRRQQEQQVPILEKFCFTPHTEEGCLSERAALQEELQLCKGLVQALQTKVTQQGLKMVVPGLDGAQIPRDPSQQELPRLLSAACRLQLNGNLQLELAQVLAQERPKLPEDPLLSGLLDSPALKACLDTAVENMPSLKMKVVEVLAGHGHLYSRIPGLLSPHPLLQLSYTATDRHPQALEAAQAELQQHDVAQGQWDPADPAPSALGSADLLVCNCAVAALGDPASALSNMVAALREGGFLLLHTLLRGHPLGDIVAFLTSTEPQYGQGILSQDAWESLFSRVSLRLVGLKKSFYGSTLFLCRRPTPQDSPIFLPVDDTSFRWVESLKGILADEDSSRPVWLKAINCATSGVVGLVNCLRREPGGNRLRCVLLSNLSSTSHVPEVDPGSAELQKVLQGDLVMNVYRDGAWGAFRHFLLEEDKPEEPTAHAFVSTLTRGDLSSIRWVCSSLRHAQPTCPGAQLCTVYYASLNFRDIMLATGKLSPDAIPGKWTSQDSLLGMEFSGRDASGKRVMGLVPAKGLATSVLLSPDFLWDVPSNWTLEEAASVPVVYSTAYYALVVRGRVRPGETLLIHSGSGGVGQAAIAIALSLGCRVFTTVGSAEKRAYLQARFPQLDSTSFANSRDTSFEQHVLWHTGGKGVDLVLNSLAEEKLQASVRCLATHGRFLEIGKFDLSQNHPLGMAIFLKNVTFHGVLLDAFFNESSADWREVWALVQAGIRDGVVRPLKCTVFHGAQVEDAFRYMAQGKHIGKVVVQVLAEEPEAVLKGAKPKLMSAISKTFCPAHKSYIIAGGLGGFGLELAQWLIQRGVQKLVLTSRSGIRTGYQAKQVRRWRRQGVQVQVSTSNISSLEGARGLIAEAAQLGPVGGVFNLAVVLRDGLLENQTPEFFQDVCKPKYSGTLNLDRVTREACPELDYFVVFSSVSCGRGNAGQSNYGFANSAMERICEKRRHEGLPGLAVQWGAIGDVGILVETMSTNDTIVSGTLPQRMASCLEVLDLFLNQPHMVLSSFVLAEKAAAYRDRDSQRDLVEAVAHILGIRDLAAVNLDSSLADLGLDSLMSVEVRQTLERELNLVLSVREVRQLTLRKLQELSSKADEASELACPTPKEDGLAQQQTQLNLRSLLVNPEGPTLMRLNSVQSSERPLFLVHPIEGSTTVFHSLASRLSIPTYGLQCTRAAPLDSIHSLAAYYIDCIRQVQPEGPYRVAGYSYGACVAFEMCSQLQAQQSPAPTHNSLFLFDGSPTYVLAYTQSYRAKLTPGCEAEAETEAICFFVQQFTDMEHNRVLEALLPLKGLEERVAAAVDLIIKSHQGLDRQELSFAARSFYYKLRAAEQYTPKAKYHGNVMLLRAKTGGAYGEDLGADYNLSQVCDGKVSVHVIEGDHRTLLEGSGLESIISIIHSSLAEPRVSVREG", "test": "Enzymatic Assay for FASN Inhibitors", "assay_type": "biochemical", "settings": "not given", "method": "(§1) Assays were performed in a 384-well black plate to measure the inhibition of FASN activities by individual compounds herein disclosed. An aliquot of 250 nL of compound was incubated with 10 μL of 40 nM FASN enzyme in assay buffer (50 mM HEPES pH=7.3, 0.5 mM EDTA, 1 mM Ascorbate, 100 mM NaCl and 0.04% TritonX-100) in each well at 25° C. for 60 minutes. After the plate was centrifuged briefly, 10 μL of substrate mix (20 μM Acetyl-CoA, 60 μM Malonyl-CoA, and 100 μM NADPH in assay buffer) was added to each well. The reaction was maintained at 25° C. for 90 minutes. The reaction was then quenched by adding 10 μL of 90 μM 7-Diethylamino-3-(4′-Maleimidylpheynyl)-4-Methylcoumarin in 50/50 Ethanol/H2O solution. The assay plate was incubated at 25° C. for 15 minutes, and read on a plate reader with excitation and emission wavelength at 360 nm and 530 nm, respectively. The IC50 of a given compound was calculated by fitting the dose response curve with a four parameter logistic equation.", "units": {"IC50": "nM"}, "values": [
      {"smiles": "Cn1cc2ccc(-c3ccc(C(=O)N4CCN(C(=O)C5(O)CC5)CC4)c(Cl)c3)cc2n1", "note": "[1-{4-[2-chloro-4-(2-methyl-2H-indazol-6-yl)benzoyl]piperazine-1-carbonyl}cyclopropan-1-ol]", "IC50": "< 500"},
      {"smiles": "O=C(c1ccc(N2CCc3ccc(F)cc3C2)cc1)N1CCN(C(=O)C2(O)CC2)CC1", "IC50": "< 500"},
      {"smiles": "Cc1n[nH]c2cc(-c3ccc(C(=O)N4CCN(C(=O)C5(N)CC5)CC4)cc3)ccc12", "note": "[1-{4-[4-(3-methyl-1H-indazol-6-yl)benzoyl]piperazine-1-carbonyl}cyclopropan-1-amine]", "IC50": "< 500"},
      {"smiles": "O=C(c1ccc(-c2ccc3c(c2)ncn3CCO)cc1)N1CCN(C(=O)C2(O)CC2)CC1", "note": "[1-(4-{4-[1-(2-hydroxyethyl)-1H-1,3-benzodiazol-5-yl]benzoyl}piperazine-1-carbonyl)cyclopropan-1-ol]", "IC50": "< 500"},
      {"smiles": "C[C@@H]1CN(C(=O)c2ccc(-c3ccc4c(c3)ncn4C)cc2)C[C@H](C)N1C(=O)C1(O)CC1", "note": "[1-[(2R,6S)-2,6-dimethyl-4-[4-(1-methyl-1H-1,3-benzodiazol-5-yl)benzoyl]piperazine-1-carbonyl]cyclopropan-1-ol]", "IC50": "< 500"},
      {"smiles": "O=C(c1ccc(-c2ccc3c(cnn3C3CC3)c2)cc1)N1CCN(C(=O)C2(O)CC2)CC1", "note": "[1-{4-[4-(1-cyclopropyl-1H-indazol-5-yl)benzoyl]piperazine-1-carbonyl}cyclopropan-1-ol]", "IC50": "< 500"},
      {"smiles": "C[C@H]1CN(C(=O)C2(N)CC2)CCN1C(=O)c1ccc(-c2ccc3c(c2)ncn3C)cc1", "note": "[1-[(3S)-3-methyl-4-[4-(1-methyl-1H-1,3-benzodiazol-5-yl)benzoyl]piperazine-1-carbonyl]cyclopropan-1-amine]", "IC50": "< 500"},
      {"smiles": "C[C@H]1CN(C(=O)c2ccc(-c3nc4ccc(F)cc4o3)cc2)CCN1C(=O)C1(O)CC1", "IC50": "< 500"},
      {"smiles": "C[C@H]1CN(C(=O)c2ccc(-c3ccc4c(c3)ncn4C)cc2)CCN1C(=O)C1(N)CC1", "note": "[1-[(2S)-2-methyl-4-[4-(1-methyl-1H-1,3-benzodiazol-5-yl)benzoyl]piperazine-1-carbonyl]cyclopropan-1-amine]", "IC50": "< 500"},
      {"smiles": "Cn1cc2ccc(-c3ccc(C(=O)N4CCN(C(=O)C5(O)CC5)CC4)c(F)c3)cc2n1", "IC50": "< 500"},
      {"smiles": "O=C(c1ccc(-c2nc3ccccn3c2Cl)cc1F)N1CCN(C(=O)C2(O)CC2)CC1", "note": "[1-[4-(4-{3-chloroimidazo[1,2-a]pyridin-2-yl}-2-fluorobenzoyl)piperazine-1-carbonyl]cyclopropan-1-ol]", "IC50": "< 500"},
      {"smiles": "O=C(c1ccc(-c2cccc(NS(=O)(=O)C3CCOCC3)c2)cc1)N1CCN(C(=O)C2(O)CC2)CC1", "note": "[N-(3-{4-[4-(1-hydroxycyclopropanecarbonyl)piperazine-1-carbonyl]phenyl}phenyl)oxane-4-sulfonamide]", "IC50": "< 500"},
      {"smiles": "Cc1n[nH]c2cc(-c3ccc(C(=O)N4CCN(C(=O)C5(O)CC5)CC4)cc3)ccc12", "note": "[1-{4-[4-(3-methyl-1H-indazol-6-yl)benzoyl]piperazine-1-carbonyl}cyclopropan-1-ol]", "IC50": "< 500"},
      {"smiles": "CNC(=O)COc1cccc(-c2ccc(C(=O)N3CCN(C(=O)C4(O)CC4)CC3)cc2)c1", "note": "[2-(3-{4-[4-(1-hydroxycyclopropanecarbonyl)piperazine-1-carbonyl]phenyl}phenoxy)-N-methylacetamide]", "IC50": "< 500"},
      {"smiles": "O=C(c1ccc(-c2ccc3cc(F)ccc3n2)cc1)N1CCN(C(=O)C2(O)CC2)CC1", "note": "[1-[(4-{[4-(6-fluoroquinolin-2-yl)phenyl]carbonyl}piperazin-1-yl)carbonyl]cyclopropan-1-ol]", "IC50": "< 500"},
      {"smiles": "C[C@@H]1CN(C(=O)C2(O)CC2)CCN1C(=O)c1ccc(-c2nc3ccc(F)cc3o2)cc1", "note": "[1-[(3R)-4-[4-(6-fluoro-1,3-benzoxazol-2-yl)benzoyl]-3-methylpiperazine-1-carbonyl]cyclopropan-1-ol]", "IC50": "< 500"},
      {"smiles": "O=C(c1ccc(-c2ccc(Cl)cc2F)c(Cl)c1)N1CCN(C(=O)C2(O)CC2)CC1", "note": "[1-{4-[3-chloro-4-(4-chloro-2-fluorophenyl)benzoyl]piperazine-1-carbonyl}cyclopropan-1-ol]", "IC50": "< 500"},
      {"smiles": "Cn1cnc2cc(-c3ccc(C(=O)N4CCN(C(=O)C5(N)CC5)CC4)c(F)c3)ccc21", "note": "[1-{4-[2-fluoro-4-(1-methyl-1H-1,3-benzodiazol-5-yl)benzoyl]piperazine-1-carbonyl}cyclopropan-1-amine]", "IC50": "< 500"},
      {"smiles": "O=C(c1ccc(-c2cccc(N3CCNC3=O)c2)cc1)N1CCN(C(=O)C2(O)CC2)CC1", "note": "[1-(3-{4-[4-(1-hydroxycyclopropanecarbonyl)piperazine-1-carbonyl]phenyl}phenyl)imidazolidin-2-one]", "IC50": "< 500"},
      {"smiles": "Cc1n[nH]c2cccc(-c3ccc(C(=O)N4CCN(C(=O)C5(O)CC5)CC4)cc3)c12", "note": "[1-{4-[4-(3-methyl-1H-indazol-4-yl)benzoyl]piperazine-1-carbonyl}cyclopropan-1-ol]", "IC50": "< 500"},
      {"smiles": "O=C(c1ccc(-c2nc3ccc(F)cc3o2)cc1)N1CCN(C(=O)C2(O)CC2)CC12CC2", "note": "[1-{4-[4-(6-fluoro-1,3-benzoxazol-2-yl)benzoyl]-4,7-diazaspiro[2.5]octane-7-carbonyl}cyclopropan-1-ol]", "IC50": "< 500"},
      {"smiles": "C[C@H]1CN(C(=O)c2ccc(-c3ccc4cn(C)nc4c3)cc2)CCN1C(=O)C1(O)CC1", "note": "[1-[(2S)-2-methyl-4-[4-(2-methyl-2H-indazol-6-yl)benzoyl]piperazine-1-carbonyl]cyclopropan-1-ol]", "IC50": "< 500"},
      {"smiles": "O=C(c1ccc(N2CCCc3ccccc3C2)cc1)N1CCN(C(=O)C2(O)CC2)CC1", "note": "[1-{4-[4-(2,3,4,5-tetrahydro-1H-2-benzazepin-2-yl)benzoyl]piperazine-1-carbonyl}cyclopropan-1-ol]", "IC50": "< 500"},
      {"smiles": "Cn1cnc2cc(-c3ccc(C(=O)N4CCN(C(=O)C5(O)CC5)CC45CC5)cc3)ccc21", "note": "[1-{4-[4-(1-methyl-1H-1,3-benzodiazol-5-yl)benzoyl]-4,7-diazaspiro[2.5]octane-7-carbonyl}cyclopropan-1-ol]", "IC50": "< 500"},
      {"smiles": "Cn1cc2ccc(-c3ccc(C(=O)N4CCN(C(=O)C5(N)CCC5)CC4)c(F)c3)cc2n1", "note": "[1-{4-[2-fluoro-4-(2-methyl-2H-indazol-6-yl)benzoyl]piperazine-1-carbonyl}cyclobutan-1-amine]", "IC50": "< 500"},
      {"smiles": "Cc1nn(C)c2ccc(-c3ccc(C(=O)N4CCN(C(=O)C5(N)CCC5)CC4)c(F)c3)cc12", "note": "[1-{4-[4-(1,3-dimethyl-1H-indazol-5-yl)-2-fluorobenzoyl]piperazine-1-carbonyl}cyclobutan-1-amine]", "IC50": "< 500"},
      {"smiles": "O=C(c1ccc(-c2ccc3ccnn3c2)cc1)N1CCN(C(=O)C2(O)CC2)CC1", "note": "[1-[4-(4-{pyrazolo[1,5-a]pyridin-6-yl}benzoyl)piperazine-1-carbonyl]cyclopropan-1-ol]", "IC50": "< 500"}
    ]},
    {"target": "FASN enzyme (Homo sapiens, UniProt P49327)", "test": "Enzymatic Assay for FASN Inhibitors", "assay_type": "biochemical", "settings": "FASN enzymatic assay; Table 2-2", "method": "as §1", "units": {"IC50": "nM"}, "values": [
      {"smiles": "COc1cc(-c2cnc3ccccc3c2)ccc1C(=O)N1CCN(C(=O)C2(O)CC2)CC1", "note": "[1-[(4-{[2-methoxy-4-(quinolin-3-yl)phenyl]carbonyl}piperazin-1-yl)carbonyl]cyclopropan-1-ol]", "IC50": "500 to 5000"},
      {"smiles": "O=C(c1ccc(-c2ccc3nc(C(F)(F)F)cn3c2)cc1)N1CCN(C(=O)C2(O)CC2)CC1", "note": "[1-{[4-({4-[2-(trifluoromethyl)imidazo[1,2-a]pyridin-6-yl]phenyl}carbonyl)piperazin-1-yl]carbonyl}cyclopropan-1-ol]", "IC50": "500 to 5000"},
      {"smiles": "CC(C)n1ncc2cc(-c3ccc(C(=O)N4CCN(C(=O)C5(O)CC5)CC4)cc3)ccc21", "note": "[1-{[4-({4-[1-(propan-2-yl)-1H-indazol-5-yl]phenyl}carbonyl)piperazin-1-yl]carbonyl}cyclopropan-1-ol]", "IC50": "500 to 5000"},
      {"smiles": "O=C(c1ccc(-c2nc3cc(F)c(F)cc3[nH]2)cc1)N1CCN(C(=O)C2(O)CC2)CC1", "note": "[1-[(4-{[4-(5,6-difluoro-1H-1,3-benzodiazol-2-yl)phenyl]carbonyl}piperazin-1-yl)carbonyl]cyclopropan-1-ol]", "IC50": "500 to 5000"},
      {"smiles": "CNC(=O)c1ccc(F)c(-c2ccc(C(=O)N3CCN(C(=O)C4(O)CC4)CC3)cc2)c1", "note": "[4-fluoro-3-[4-({4-[(1-hydroxycyclopropyl)carbonyl]piperazin-1-yl}carbonyl)phenyl]-N-methylbenzamide]", "IC50": "500 to 5000"},
      {"smiles": "Cc1ccc(F)c(-c2ccc(C(=O)N3CCN(C(=O)C4(O)CC4)CC3)cc2)c1", "note": "[1-[(4-{[4-(2-fluoro-5-methylphenyl)phenyl]carbonyl}piperazin-1-yl)carbonyl]cyclopropan-1-ol]", "IC50": "500 to 5000"}
    ]},
    {"target": "FASN enzyme (Homo sapiens, UniProt P49327)", "test": "Enzymatic Assay for FASN Inhibitors", "assay_type": "biochemical", "settings": "FASN enzymatic assay; Table 2-3", "method": "as §1", "units": {"IC50": "nM"}, "values": [
      {"smiles": "O=C(c1cn2cc(-c3ccc(F)cc3)ccc2n1)N1CCN(C(=O)C2(O)CC2)CC1", "note": "[1-[(4-{[6-(4-fluorophenyl)imidazo[1,2-a]pyridin-2-yl]carbonyl}piperazin-1-yl)carbonyl]cyclopropan-1-ol]", "IC50": "≥ 5000"},
      {"smiles": "O=C(c1ccc(-c2cc(F)ccc2F)cc1)N1CCN(C(=O)C2(O)CC2)CC1", "note": "[1-[(4-{[4-(2,5-difluorophenyl)phenyl]carbonyl}piperazin-1-yl)carbonyl]cyclopropan-1-ol]", "IC50": "≥ 5000"},
      {"smiles": "O=C(c1ccc(-c2ccc(Cl)cc2F)cc1)N1CCN(C(=O)C2(O)CC2)[C@H](CO)C1", "IC50": "≥ 5000"},
      {"smiles": "O=C(c1ccc(-c2cc(F)ccc2Cl)cc1)N1CCN(C(=O)C2(O)CC2)CC1", "note": "[1-[(4-{[4-(2-chloro-5-fluorophenyl)phenyl]carbonyl}piperazin-1-yl)carbonyl]cyclopropan-1-ol]", "IC50": "≥ 5000"},
      {"smiles": "Cn1ncc2cccc(-c3ccc(C(=O)N4CCN(C(=O)C5(O)CC5)CC4)cc3)c21", "note": "[1-[(4-{[4-(1-methyl-1H-indazol-7-yl)phenyl]carbonyl}piperazin-1-yl)carbonyl]cyclopropan-1-ol]", "IC50": "≥ 5000"},
      {"smiles": "C[C@H](O)C(=O)N1CCN(C(=O)c2ccc(-c3ccccc3)cc2)CC1", "note": "[(2S)-2-hydroxy-1-{4-[(4-phenylphenyl)carbonyl]piperazin-1-yl}propan-1-one]", "IC50": "≥ 5000"}
    ]}
  ]
}
